Usually Ki stands for the equilibrium dissociation constant of an inhibitor or competing ligand from its target.

Data on 13 molecules can be found in ChEMBL document CHEMBL3886909, “7-hydroxy-spiropipiperidine indolinyl antagonists of P2Y1 receptor” (2016).

Assay [1] deals with T1, P2Y purinoceptor 1 (Homo sapiens, UniProt P47900). Description: Scintillation Proximity Assay (SPA): A SPA membrane binding assay was used to identify inhibitors of [33P] […] Binding reactions were performed in 384-well OptiPlates (PerkinElmer Life Sciences, Cat #6007299) in a volume of 50 uL containing 15 fmol of P2Y1 receptor (1.7 ug of total protein), 0.3 nM [33P] […] Reactions were allowed to proceed to completion at room temperature for 1 hour followed by centrifugation of the plate for 5 min. About 40 uL of the aqueous soluttion was aspirated. Plates were sealed and the [33P].

The target in assay [2] is T1, P2Y purinoceptor 1. Kind of assay: Binding Assay: Binding reactions were performed in WGA FLASHPLATEs (PerkinElmer Life Sciences, Cat # SMP105A) in a volume of 200 uL containing 45 fmol of P2Y1 receptor (5 ug of total protein), 0.5 nM [33P] […] Reactions were allowed to proceed to completion at room temperature for 1 hour and then the aqueous solution aspirated.

T1 sequence (P47900 whole entry): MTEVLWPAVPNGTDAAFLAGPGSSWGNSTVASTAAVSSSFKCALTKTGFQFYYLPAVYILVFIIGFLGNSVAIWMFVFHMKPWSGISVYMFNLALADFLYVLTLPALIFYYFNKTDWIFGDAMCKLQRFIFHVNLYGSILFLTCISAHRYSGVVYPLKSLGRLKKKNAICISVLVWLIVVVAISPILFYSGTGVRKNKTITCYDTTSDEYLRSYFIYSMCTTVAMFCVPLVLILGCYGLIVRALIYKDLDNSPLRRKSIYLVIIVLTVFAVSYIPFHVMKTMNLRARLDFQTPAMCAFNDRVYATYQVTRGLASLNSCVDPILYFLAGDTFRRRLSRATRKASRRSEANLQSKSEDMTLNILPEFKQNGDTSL

On P2Y purinoceptor 1 [1], `CC(C)(C)CN1CCC2(CC1)CN(c1ccccc1NC(=O)Nc1ccc(OC(F)(F)F)cc1)c1c(O)ccc(-c3nc4ccc(Cl)cc4s3)c12` yielded a Ki of 73.4 nM. That is a double-digit nanomolar value. The molecule `CC(C)(C)CN1CCC2(CC1)CN(c1ccccc1NC(=O)Nc1nc3ccc(Cl)cc3s1)c1c(O)cc(F)c(Cl)c12` returned a Ki on P2Y purinoceptor 1 [1] of 23.1 nM. Same read-out and setting: for `CC(C)(C)CN1CCC2(CC1)CN(c1ccccc1NC(=O)Nc1nc3ccc(F)cc3s1)c1c(O)ccc(-c3nc4ccc(Cl)cc4s3)c12` the value was 104 nM; for `CC(C)(C)CN1CCC2(CC1)CN(c1ccccc1NC(=O)Nc1csc(Cl)n1)c1c(O)ccc(-c3nc4cc(Cl)ccc4s3)c12`, 9.1 nM; for `CC(C)N1CCC2(CC1)CN(c1ccccc1NC(=O)Nc1ccc(OC(F)(F)F)cc1)c1c(O)ccc(-c3nc4cc(Cl)ccc4s3)c12`, 24 nM.

Turning to `CC(C)(C)CN1CCC2(CC1)CN(c1ccccc1NC(=O)Nc1csc(Cl)n1)c1c(O)ccc(-c3nc4cccc(Cl)c4s3)c12`, affinity at P2Y purinoceptor 1 [1] was put at a Ki of 18.4 nM. The Ki values of the last two molecules are within 1.5-fold of each other. Same read-out and setting: to `CC(C)(C)CN1CCC2(CC1)CN(c1ccccc1NC(=O)Nc1nc3ccc(Cl)nc3s1)c1c(O)ccc(-c3nc4cc(Cl)ccc4s3)c12` belongs 53.7 nM; to `CC(C)(C)CN1CCC2(CC1)CN(c1ccccc1NC(=O)Nc1nc3ccc(F)cc3s1)c1c(O)ccc(-c3nc4cc(Cl)ccc4s3)c12`, 1.2 nM; to `CC(C)(C)CN1CCC2(CC1)CN(c1ccccc1NC(=O)Nc1csc(Cl)n1)c1c(O)cc(F)c(Cl)c12`, 19 nM. Still for that read-out and setting: for `CC(C)CN1CCC2(CC1)CN(c1ccccc1NC(=O)Nc1ccc(OC(F)(F)F)cc1)c1c(O)ccc(-c3nc4cc(Cl)ccc4s3)c12` the value was 9.6 nM.

As for `CC(C)(C)CN1CCC2(CC1)CN(c1ccccc1NC(=O)Nc1nc3ccc(Cl)nc3s1)c1c(O)ccc(-c3nc4cc(C(F)(F)F)ccc4s3)c12`, affinity at P2Y purinoceptor 1 [1] was put at a Ki of 24.6 nM. In turn, `CC(C)(C)CN1CCC2(CC1)CN(c1ccccc1NC(=O)Nc1ccc(OC(F)(F)F)cc1)c1c(O)cc(F)cc12` came in with a Ki at P2Y purinoceptor 1 [2] of 9.1 nM. In turn, `CC(C)(C)CN1CCC2(CC1)CN(c1ccccc1NC(=O)Nc1ccc(OC(F)(F)F)cc1)c1c(O)ccc(-c3nc4cc(Cl)ccc4s3)c12` registered a Ki on P2Y purinoceptor 1 [1] of 137 nM.
